Measured values published in patent US12233143B2, “Topical compositions containing rose oil and cannabidiol and methods of making and using the same” (priority 2019, dated 2025).
Several values for one entry are separate records, joined by “and”; a condition that tells them apart may be missing. Equal values may be shown once.

Legend:
[1] = tested on: PMA-induced IL-8 release by NCTC-2544 keratinocytes; assay: PMA-induced IL-8 release, ELISA; assay type: cell-based, human; conditions: Dexamethasone 10^−7 M, PMA 0.1 μg/ml
Procedure: (§1) The effect of S-863d and S-863g on inflammation in keratinocytes was evaluated by measuring phorbol myristate acetate (PMA)-induced interleukin-8 (IL-8) and prostaglandin E2 (PGE2) release from a NCTC-2544 keratinocyte cell line by enzyme-linked immunosorbent assay (ELISA).
(§2) Materials: A NCTC-2544 human keratinocyte cell line (NCTC-2544 cells) was cultured at 37° C. in the presence of 5% CO2. The NCTC-2544 cells were grown in Dulbecco's Modified Eagle Medium (DMEM) supplemented with L-glutamine (2 mM), penicillin (50 U/mL), Streptomycin (50 μg/mL), and fetal calf serum (FCS) (10%). S-863d contained 3% phospholipids, 54% glycerin, 10% caprylic/capric triglyceride, 1% cannabidiol, 2% AlpineRoseActive™, 1% glycoin, 0.1% tocopherol, and water (ad 100%). The particle size (zAve) of S-863d was 90±50 nm, and the pH of S-863d was between 4.5 and 7.5. The total germ count of S-863d was <100 CFU/g. S-863d was stored at 4° C. in a dark space in a closed container. S-863g (negative control) contained 1% CBD in DMSO. S-863 d was evaluated at 0.004%, 0.02%, and 0.1%. S-863g was evaluated at 0.00044%, 0.0013%, and 0.004%.
(§3) Methods: The keratinocytes were seeded in 96-well plates and cultured for 24 hours in culture medium. The medium was then replaced by culture medium containing or not (control) the test compounds or the reference compound (dexamethasone at 10′ M for IL-8 assay and indomethacin at 10′ M for PGE2 assay) and the cells were pre-incubated for 24 hours. After pre-incubation, the medium was replaced by culture medium containing or not (control) the test compounds or the reference compounds and the inflammatory inducer phorbol myristate acetate (PMA) at 0.1 μg/mL was added. The cells were further incubated for 24 hours. A control without inducer was performed in parallel (non-stimulated control condition). All experimental conditions were performed in triplicate. IL-8 and PGE2 released in the culture supernatants were measured by ELISA.
(§4) Inhibition of IL-8 and PMA-induced PGE2 release was measured using the following formula: […]

[2] = tested on: PMA-induced PGE2 release by NCTC-2544 keratinocytes; assay: PMA-induced PGE2 release, ELISA; assay type: cell-based, human
Procedure: as §1, §2, §3, §4

[3] = tested on: human keratinocyte stem cells (KSC); assay: Migration of keratinocyte stem cells, scratch wound gap recovery; assay type: cell-based; conditions: 24 hours of incubation
Procedure: The effect of S-863d and S-863g on wound healing in keratinocytes was evaluated. The migration of human keratinocyte stem cells (KSC) was evaluated by measuring wound recovery using imaging on a system whereby a “wound gap” was created by scratching.
Materials: Human keratinocyte cells (KSC) were used at the third passage and cultured at 37° C. in the presence of 5% CO2. The NHEK cells were grown in keratinocyte serum free media supplemented with gentamycin (25 μg/mL), pituitary extract (PE) (25 μg/mL), and epidermal growth factor (EGF) (0.25 ng/ml). S-863d contained 3% phospholipids, 54% glycerin, 10% caprylic/capric triglyceride, 1% cannabidiol, 2% AlpineRoseActive™, 1% glycoin, 0.1% tocopherol, and water (ad 100%). The particle size (zAve) of S-863d was 90±50 nm, and the pH of S-863d was between 4.5 and 7.5. The total germ count of S-863d was <100 CFU/g. S-863d was stored at 4° C. in a dark space in a closed container. S-863g (negative control) contained 1% CBD in DMSO. S-863d was evaluated at 0.004%, 0.02%, and 0.1%. S-863g was evaluated at 0.00044%, 0.0013%, and 0.004%.
Methods: The KSCs were seeded in 24-well plates (previously coated with a collagen I solution) and cultured in culture medium for 24 hours. The medium was then replaced by assay medium and an artificial “wound gap” was generated by scratching the cell monolayers. The KSCs were labeled with calcien-AM. After 30 minutes of incubation (TO), the medium was replaced by assay medium containing or not (control condition) the test compounds or the reference compound (e.g. epidermal growth factor (EGF) at 10 ng/mL) and the cells were further incubated for 24 hours. The labeling with calcein-AM was renewed before the final timepoint. All experimental conditions were performed in triplicate. Cell migration into the migration zone was observed after 0 (TO) and 24 hours of incubation using a high-resolution imaging system INCell Analyzer′ 2200 (GE Healthcare) automated microscope and the artificial wound area was analyzed using ImageJ software. One picture was taken per well (objective lens×4). The artificial wound area was measured after 24 hours of incubation and compared to the area measured at TO in order to visualize and quantify the wound recovery. The effect of compounds on cell migration was compared to the untreated control.
The migration area (percentage of wound recovery) was calculated using the following formula: […]

C[C@@H]1C[C@H]2[C@@H]3CCC4=CC(=O)C=C[C@]4(C)[C@@]3(F)[C@@H](O)C[C@]2(C)[C@@]1(O)C(=O)CO [Dexamethasone, dexamethasone]
IL-8 % Stimulated control [1]: 18% | IL-8 Mean [1]: 22112 pg/mL | IL-8 (pg/ml) dilution factor adjusted ([1]; single replicate): 18117 pg/mL and 23002 pg/mL and 25217 pg/mL | inhibition at 0.1 µM ([1]; Homo sapiens, NCTC-2544, read-out: IL-8 % Relative inhibition): 82%

COc1ccc2c(c1)c(CC(=O)O)c(C)n2C(=O)c1ccc(Cl)cc1 [Indomethacin, indomethacin]
inhibition at 1 µM ([2]; Homo sapiens, NCTC-2544, read-out: PGE2 % Relative inhibition): > 100% | PGE2 Mean ([2]; Indomethacin 10^−6 M, PMA 0.1 μg/ml, non-diluted samples): <39 pg/mL | PGE2 (pg/ml) dilution factor adjusted ([2]; Indomethacin 10^−6 M, PMA 0.1 μg/ml, non-diluted samples, single replicate): <39 pg/mL | PGE2 % Stimulated control ([2]; Indomethacin 10^−6 M, PMA 0.1 μg/ml, extrapolated from values below detection limit): <0% | Effect on PMA-induced PGE2 release (in words) ([2]; NCTC-2544 cells, PMA 0.1 μg/mL): completely inhibited

epidermal growth factor [EGF]
Effect on KSC migration / wound recovery (in words) ([3]; all tested concentrations): marked stimulation | Wound Recovery Mean ([3]; EGF 10 ng/ml): 73% | Wound recovery % Control ([3]; EGF 10 ng/ml): 183 % Control | 24 Hours Wound area ([3]; EGF 10 ng/ml, single image): 0.46 mm^2 and 0.50 mm^2 and 0.76 mm^2 | Wound Recovery ([3]; EGF 10 ng/ml, single image): 80% and 75% and 64%
